Measurements: US9637490B2, “Antifungal 5,6-dihydro-4-[(difluoroethyl)phenyl]-4H-pyrrolo[1,2-α][1,4]benzodiazepine and 4-(difluoroethyl)phenyl-6H-pyrrolo[1,2-α][1,4]benzodiazepine derivatives” (Janssen Pharmaceutica NV, priority 2010, dated 2017)

Tests used:
[1] = system: Candida parapsilosis B66126; test: Antifungal activity in vitro (resazurin susceptibility screen), Inf. D; assay type: cell-based; details: 37 °C, 24 hours, resa time 4 hours; for IC50: Lodderomyces parapsilosis, B66126, Candida parapsilosis B66126; for pIC50 Inf. D: Candida parapsilosis B66126
Experimental: (§1) The standard susceptibility screen was performed in 96-well plates (U-bottom, Greiner Bio-One). Serial dilutions (2-fold or 4-fold) of 20 mM compound stock solutions were made in 100% DMSO, followed by an intermediate dilution step in water. These serial dilutions (10 μl) were then spotted onto test-plates that could be stored in the dark at 4° C. for a maximum period of 2 weeks. An adequate broad dose-range was included with 64 μM as the highest in-test concentration. The culture medium RPMI-1640 was supplemented with L-glutamine, 2% glucose and buffered with 3-(N-morpholino)-propanesulfonic acid (MOPS) at pH 7.0±0.1. The different fungal species/isolates (Table 3a) were cryopreserved and 1/1000 diluted in medium just prior to use. A standard inoculum of 200 μl containing 10^3 colony-forming unit (cfu) was then added to each well. A positive control (100% growth=fungal culture without antifungal) and a negative control (0% growth=RPMI-MOPS medium) were included on each plate. Optimal incubation time and temperature were dependent on the fungal species and vary from 24 h for yeasts (37° C.) to one week or more for dermatophytes (27° C.). Inhibition of fungal growth was measured after adding 10 μl of 0.005% (w/v) resazurin (Sigma Aldrich) to each well, based on the principle that living cells convert the non-fluorescent blue resazurin into the pink and fluorescent resorufin, allowing fluorimetric reading (λhd ex 550 nm and μem 590 nm) after an additional incubation period (‘resa’ time mentioned in Table 3a). [table]

[2] = system: Trichophyton mentagrophytes B70554; test: Antifungal activity in vitro (resazurin susceptibility screen), Inf. G; assay type: cell-based; details: 27 °C, 7 days, resa time 24 hours; for IC50: Trichophyton mentagrophytes, B70554, Trichophyton mentagrophytes B70554; for pIC50 Inf. G: Trichophyton mentagrophytes B70554
Experimental: as §1

[3] = system: Cryptococcus neoformans B66663; test: Antifungal activity in vitro (resazurin susceptibility screen), Inf. F; assay type: cell-based; details: 37 °C, 24 hours, resa time 4 hours; for IC50: Cryptococcus neoformans, B66663, Cryptococcus neoformans B66663; for pIC50 Inf. F: Cryptococcus neoformans B66663
Experimental: as §1

[4] = system: Sporothrix schenkii B62482; test: Antifungal activity in vitro (resazurin susceptibility screen), Inf. A; assay type: cell-based; details: 27 °C, 4 days, resa time 24 hours; for IC50: Sporothrix, B62482, Sporothrix schenkii B62482; for pIC50 Inf. A: Sporothrix schenkii B62482
Experimental: as §1

[5] = system: Trichophyton rubrum B68183; test: Antifungal activity in vitro (resazurin susceptibility screen), Inf. C; assay type: cell-based; details: 27 °C, 7 days, resa time 24 hours; for IC50: Trichophyton rubrum, B68183, Trichophyton rubrum B68183; for pIC50 Inf. C: Trichophyton rubrum B68183
Experimental: as §1

[6] = system: Aspergillus fumigatus B42928; test: Antifungal activity in vitro (resazurin susceptibility screen), Inf. E; assay type: cell-based; details: 27 °C, 48 hours, resa time 17 hours; for IC50: Aspergillus fumigatus, B42928, Aspergillus fumigatus B42928; for pIC50 Inf. E: Aspergillus fumigatus B42928
Experimental: as §1

Microsporum canis B68128 = test: Antifungal activity in vitro (resazurin susceptibility screen), Inf. B; assay type: cell-based; details: 27 °C, 9 days, resa time 24 hours; for IC50: Microsporum canis, B68128, Microsporum canis B68128; for pIC50 Inf. B: Microsporum canis B68128
Experimental: as §1

[7] = system: Mucor circinelloides IHEM21105; test: Antifungal activity in vitro (resazurin susceptibility screen), Inf. L; assay type: cell-based; details: 27 °C, 48 hours, resa time 17 hours
Experimental: as §1

[8] = system: Scedosporium apiospermum IHEM3817; test: Antifungal activity in vitro (resazurin susceptibility screen), Inf. H; assay type: cell-based; details: 37 °C, 48 hours, resa time 17 hours; for IC50: Scedosporium apiospermum, IHEM3817, Scedosporium apiospermum IHEM3817
Experimental: as §1

[9] = system: Rhizomucor miehei IHEM13391; test: Antifungal activity in vitro (resazurin susceptibility screen), Inf. K; assay type: cell-based; details: 37 °C, 48 hours, resa time 17 hours; for IC50: Rhizomucor miehei, IHEM13391, Rhizomucor miehei IHEM13391
Experimental: as §1

[10] = system: Scedosporium prolificans IHEM21157; test: Antifungal activity in vitro (resazurin susceptibility screen), Inf. I; assay type: cell-based; details: Lomentospora prolificans, 37 °C, 48 hours, resa time 17 hours
Experimental: as §1

Rhizopus oryzae IHEM5223 = test: Antifungal activity in vitro (resazurin susceptibility screen), Inf. J; assay type: cell-based; details: Rhizopus arrhizus, 37 °C, 24 hours, resa time 6 hours
Experimental: as §1

Row | SMILES | melting point | IC50 [1] | IC50 [2] | IC50 [3] | IC50 [4] | IC50 [5] | IC50 [6] | IC50 (Microsporum canis B68128) | IC50 [7] | IC50 [8] | IC50 [9] | IC50 [10] | IC50 (Rhizopus oryzae IHEM5223) | other results
1 | CC(F)(F)c1ccc(C2=NCc3c(Cl)ccc(Cl)c3-n3cccc32)cc1 [Compound 8, 7,10-dichloro-4-[4-(1,1-difluoroethyl)phenyl]-6H-pyrrolo[1,2-a][1,4]benzodiazepine] | 162.3 to 163.5 °C | > 64.6 µM | 60.3 µM | > 64.6 µM | > 64.6 µM | 3.02 µM | > 64.6 µM | 3.98 µM |  |  |  |  |  | 
2 | CC(F)(F)c1ccc(C2=NCc3c(F)cccc3-n3cccc32)cc1 [Compound 15, 4-[4-(1,1-difluoroethyl)phenyl]-7-fluoro-6H-pyrrolo[1,2-a][1,4]benzodiazepine] |  | 0.631 µM | 0.251 µM | > 64.6 µM | > 64.6 µM | 0.0427 µM | 0.224 µM | 0.49 µM | > 64.6 µM | > 64.6 µM | > 64.6 µM | 2.51 µM | 33.9 µM | 
3 | CC(F)(F)c1ccc(C2=NCc3ccc(Cl)c(Cl)c3-n3cccc32)cc1 [Compound 22, 9,10-dichloro-4-[4-(1,1-difluoroethyl)phenyl]-6H-pyrrolo[1,2-a][1,4]benzodiazepine] | 140.9 to 142.1 °C | > 64.6 µM | > 64.6 µM | > 64.6 µM | > 64.6 µM | 7.76 µM | > 64.6 µM | 7.76 µM |  |  |  |  |  | 
4 | CC(F)(F)c1ccc(C2=NCc3cc(Cl)cc(Cl)c3-n3cccc32)cc1 [Compound 6, 8,10-dichloro-4-[4-(1,1-difluoroethyl)phenyl]-6H-pyrrolo[1,2-a][1,4]benzodiazepine] | 132.1 to 134.2 °C | > 64.6 µM | 2.45 µM | 1.41 µM | 2.63 µM | 5.89 µM | 0.933 µM | 17.4 µM | > 64.6 µM | > 64.6 µM | > 64.6 µM |  | > 64.6 µM | 
5 | CC(F)(F)c1ccc(C2=NCc3c(Cl)cc(F)cc3-n3cccc32)cc1 [Compound 27, 7-chloro-4-[4-(1,1-difluoroethyl)phenyl]-9-fluoro-6H-pyrrolo[1,2-a][1,4]benzodiazepine] |  | 1.82 µM | 1.51 µM | 1.02 µM | 2.45 µM | 0.288 µM | 0.501 µM | 0.513 µM | > 64.6 µM | 0.437 µM | 8.32 µM | 0.1 µM | > 64.6 µM | 
6 | CC(F)(F)c1ccc(C2NCc3c(Cl)cc(F)cc3-n3cccc32)cc1.Cl (stereo not drawn) [Compound 24, 7-chloro-4-[4-(1,1-difluoroethyl)phenyl]-9-fluoro-5,6-dihydro-4H-pyrrolo[1,2-a][1,4]-benzodiazepine.HCl] | 240 to 240.7 °C | 2.63 µM | 1.7 µM | > 64.6 µM | > 64.6 µM | 0.617 µM | 11.5 µM | 7.76 µM |  |  |  |  |  | 
7 | CC(F)(F)c1ccc(C2NCc3c(Cl)cccc3-n3cccc32)cc1.Cl [Compound 3, (4R)-7-chloro-4-[4-(1,1-difluoroethyl)phenyl]-5,6-dihydro-4H-pyrrolo[1,2-a][1,4]-benzodiazepine.HCl] | 206.3 to 206.8 °C |  |  |  |  |  |  |  |  |  |  |  |  | pIC50 Inf. D [1]: 5.58; pIC50 Inf. G [2]: 6.36; pIC50 Inf. H ([8]; Scedosporium apiospermum IHEM3817): 5.13; pIC50 Inf. F [3]: 5.26; pIC50 Inf. K ([9]; Rhizomucor miehei IHEM13391): 4.59; pIC50 Inf. A [4]: <4.19; pIC50 Inf. C [5]: 6.96; pIC50 Inf. E [6]: 5.70; pIC50 Inf. B (Microsporum canis B68128): 6.30
8 | CC(F)(F)c1ccc(C2NCc3c(Cl)cccc3-n3cccc32)cc1.Cl [Compound 2, (4S)-7-chloro-4-[4-(1,1-difluoroethyl)phenyl]-5,6-dihydro-4H-pyrrolo[1,2-a][1,4]-benzodiazepine.HCl] | 206.7 to 207.6 °C |  |  |  |  |  |  |  |  |  |  |  |  | pIC50 Inf. D [1]: <4.19; pIC50 Inf. G [2]: 5.43; pIC50 Inf. F [3]: <4.19; pIC50 Inf. A [4]: <4.19; pIC50 Inf. C [5]: 5.82; pIC50 Inf. E [6]: <4.19; pIC50 Inf. B (Microsporum canis B68128): 5.09
9 | CC(F)(F)c1cc(C2=NCc3c(F)cccc3-n3cccc32)ccc1F [Compound 20, 4-[3-(1,1-difluoroethyl)-4-fluorophenyl]-7-fluoro-6H-pyrrolo[1,2-a][1,4]benzodiazepine] |  | 12.9 µM | 0.794 µM | > 64.6 µM | > 64.6 µM | 0.145 µM | 0.112 µM | 0.513 µM | > 64.6 µM | 0.575 µM | 26.9 µM | 0.158 µM | > 64.6 µM | 
10 | CC(F)(F)c1ccc(C2=NCc3c(F)cc(F)cc3-n3cccc32)cc1 [Compound 18, 4-[4-(1,1-difluoroethyl)phenyl]-7,9-difluoro-6H-pyrrolo[1,2-a][1,4]benzodiazepine] |  | 2.34 µM | 1.1 µM | 1.62 µM | 8.13 µM | 0.148 µM | 0.501 µM | 2.14 µM | > 64.6 µM | > 64.6 µM | 50.1 µM | 0.794 µM | > 64.6 µM | 
11 | CC(F)(F)c1cc(C2=NCc3c(Cl)cccc3-n3cccc32)ccc1F [Compound 21, 7-chloro-4-[3-(1,1-difluoroethyl)-4-fluorophenyl]-6H-pyrrolo[1,2-a][1,4]benzodiazepine] |  | 2.45 µM | 0.692 µM | 1.58 µM | 3.72 µM | 0.195 µM | 0.126 µM | 0.479 µM | > 64.6 µM | 0.0891 µM | 6.61 µM | 0.0501 µM | > 64.6 µM | 
